US20240180900A1, “COMPOUNDS AND METHODS FOR THE TARGETED DEGRADATION OF ANDROGEN RECEPTOR” (Arvinas Operations, Inc., priority 2022, published 2024)

Assay: Phase 1/2 study in mCRPC participants: safety
[1] = all-causality TEAEs, Phase 1, N = 34
[2] = all-causality TEAEs, Phase 2, N = 13

COc1cc(O[C@H]2C(C)(C)[C@H](NC(=O)c3ccc(N4CCC(CN5CCN(c6ccc(C(=O)N[C@H]7CCC(=O)NC7=O)c(F)c6)CC5)CC4)cc3)C2(C)C)ccc1C#N [Compound A, 4-(4-((1-(4-(((1R,3R)-3-(4-cyano-3-methoxyphenoxy)-2,2,4,4-tetramethylcyclobutyl)carbamoyl)phenyl)piperidin-4-yl)methyl)piperazin-1-yl)-N—((S)-2,6-dioxopiperidin-3-yl)-2-fluorobenzamide]
Fatigue: Grade 5 [1]: 0 participants | Gastrointestinal disorders: Any Grade [1]: 15 participants | Gastrointestinal disorders: Grade 3 [1]: 2 participants | Gastrointestinal disorders: Grade 4 [1]: 0 participants | Gastrointestinal disorders: Grade 5 [1]: 0 participants | General disorders and administration site conditions: Any Grade [1]: 16 participants | General disorders and administration site conditions: Grade 3 [1]: 1 participants | General disorders and administration site conditions: Grade 4 [1]: 0 participants | General disorders and administration site conditions: Grade 5 [1]: 0 participants | Hyponatraemia: Any Grade [1]: 4 participants | Hyponatraemia: Grade 3 [1]: 0 participants | Hyponatraemia: Grade 4 [1]: 0 participants | Hyponatraemia: Grade 5 [1]: 0 participants | Hypophosphataemia: Any Grade [1]: 4 participants | Hypophosphataemia: Grade 3 [1]: 0 participants | Hypophosphataemia: Grade 4 [1]: 0 participants | Hypophosphataemia: Grade 5 [1]: 0 participants | Insomnia: Any Grade [1]: 5 participants | Insomnia: Grade 3 [1]: 0 participants | Insomnia: Grade 4 [1]: 0 participants | Insomnia: Grade 5 [1]: 0 participants | Investigations: Any Grade [1]: 19 participants | Investigations: Grade 3 [1]: 1 participants | Investigations: Grade 4 [1]: 1 participants | Investigations: Grade 5 [1]: 0 participants | Lymphocyte count decreased: Any Grade [1]: 4 participants | Lymphocyte count decreased: Grade 3 [1]: 0 participants | Lymphocyte count decreased: Grade 4 [1]: 1 participants | Lymphocyte count decreased: Grade 5 [1]: 0 participants | Metabolism and nutrition disorders: Any Grade [1]: 15 participants | Metabolism and nutrition disorders: Grade 3 [1]: 1 participants | Metabolism and nutrition disorders: Grade 4 [1]: 0 participants | Metabolism and nutrition disorders: Grade 5 [1]: 0 participants | Nausea: Any Grade [1]: 7 participants | Nausea: Grade 3 [1]: 0 participants | Nausea: Grade 4 [1]: 0 participants | Nausea: Grade 5 [1]: 0 participants | Neutrophil count decreased: Any Grade [1]: 4 participants | Neutrophil count decreased: Grade 3 [1]: 0 participants | Neutrophil count decreased: Grade 4 [1]: 0 participants | Neutrophil count decreased: Grade 5 [1]: 0 participants | Participants with any TEAEs: Any Grade [1]: 33 participants | Participants with any TEAEs: Grade 3 [1]: 10 participants | Participants with any TEAEs: Grade 4 [1]: 2 participants | Participants with any TEAEs: Grade 5 [1]: 1 (2.9) participants | Psychiatric disorders: Any Grade [1]: 7 participants | Psychiatric disorders: Grade 3 [1]: 0 participants | Psychiatric disorders: Grade 4 [1]: 0 participants | Psychiatric disorders: Grade 5 [1]: 0 participants | Rash maculo-papular: Any Grade [1]: 4 participants | Rash maculo-papular: Grade 3 [1]: 0 participants | Rash maculo-papular: Grade 4 [1]: 0 participants | Rash maculo-papular: Grade 5 [1]: 0 participants | Respiratory, thoracic and mediastinal disorders: Any Grade [1]: 6 participants | Respiratory, thoracic and mediastinal disorders: Grade 3 [1]: 2 participants | Respiratory, thoracic and mediastinal disorders: Grade 4 [1]: 0 participants | Respiratory, thoracic and mediastinal disorders: Grade 5 [1]: 0 participants | Skin and subcutaneous tissue disorders: Any Grade [1]: 10 participants | Skin and subcutaneous tissue disorders: Grade 3 [1]: 0 participants | Skin and subcutaneous tissue disorders: Grade 4 [1]: 0 participants | Skin and subcutaneous tissue disorders: Grade 5 [1]: 0 participants | Abdominal pain: Any Grade [2]: 2 participants | Abdominal pain: Grade 3 [2]: 1 participants | Abdominal pain: Grade 4 [2]: 0 participants | Abdominal pain: Grade 5 [2]: 0 participants | Alopecia: Any Grade [2]: 2 participants | Alopecia: Grade 3 [2]: 0 participants | Alopecia: Grade 4 [2]: 0 participants | Alopecia: Grade 5 [2]: 0 participants | Anaemia: Any Grade [2]: 4 participants | Anaemia: Grade 3 [2]: 0 participants | Anaemia: Grade 4 [2]: 0 participants | Anaemia: Grade 5 [2]: 0 participants | Blood alkaline phosphatase increased: Any Grade [2]: 3 participants | Blood alkaline phosphatase increased: Grade 3 [2]: 0 participants | Blood alkaline phosphatase increased: Grade 4 [2]: 0 participants | Blood alkaline phosphatase increased: Grade 5 [2]: 0 participants | Blood and lymphatic system disorders: Any Grade [2]: 4 participants | Blood and lymphatic system disorders: Grade 3 [2]: 0 participants | Blood and lymphatic system disorders: Grade 4 [2]: 0 participants | Blood and lymphatic system disorders: Grade 5 [2]: 0 participants | Diarrhoea: Any Grade [2]: 3 participants | Diarrhoea: Grade 3 [2]: 0 participants | Diarrhoea: Grade 4 [2]: 0 participants | Diarrhoea: Grade 5 [2]: 0 participants | Dysgeusia: Any Grade [2]: 3 participants | Dysgeusia: Grade 3 [2]: 0 participants | Dysgeusia: Grade 4 [2]: 0 participants | Dysgeusia: Grade 5 [2]: 0 participants | Fatigue: Any Grade [2]: 2 participants | Fatigue: Grade 3 [2]: 0 participants | Fatigue: Grade 4 [2]: 0 participants | Fatigue: Grade 5 [2]: 0 participants | Gastrointestinal disorders: Any Grade [2]: 7 participants | Gastrointestinal disorders: Grade 3 [2]: 1 participants | Gastrointestinal disorders: Grade 4 [2]: 0 participants | Gastrointestinal disorders: Grade 5 [2]: 0 participants | General disorders and administration site conditions: Any Grade [2]: 2 participants | General disorders and administration site conditions: Grade 3 [2]: 0 participants | General disorders and administration site conditions: Grade 4 [2]: 0 participants | General disorders and administration site conditions: Grade 5 [2]: 0 participants | Haematuria: Any Grade [2]: 3 participants | Haematuria: Grade 3 [2]: 0 participants | Haematuria: Grade 4 [2]: 0 participants | Haematuria: Grade 5 [2]: 0 participants | Hypertension: Any Grade [2]: 2 participants | Hypertension: Grade 3 [2]: 1 participants | Hypertension: Grade 4 [2]: 0 participants | Hypertension: Grade 5 [2]: 0 participants | Investigations: Any Grade [2]: 5 participants | Investigations: Grade 3 [2]: 0 participants | Investigations: Grade 4 [2]: 0 participants | Investigations: Grade 5 [2]: 0 participants | Nausea: Any Grade [2]: 2 participants | Nausea: Grade 3 [2]: 0 participants | Nausea: Grade 4 [2]: 0 participants | Nausea: Grade 5 [2]: 0 participants | Nervous system disorders: Any Grade [2]: 3 participants | Nervous system disorders: Grade 3 [2]: 0 participants | Nervous system disorders: Grade 4 [2]: 0 participants | Nervous system disorders: Grade 5 [2]: 0 participants | Participants with any TEAEs: Any Grade [2]: 11 participants | Participants with any TEAEs: Grade 3 [2]: 2 participants | Participants with any TEAEs: Grade 4 [2]: 0 participants | Participants with any TEAEs: Grade 5 [2]: 0 participants | Proteinuria: Any Grade [2]: 2 participants | Proteinuria: Grade 3 [2]: 0 participants | Proteinuria: Grade 4 [2]: 0 participants | Proteinuria: Grade 5 [2]: 0 participants | Renal and urinary disorders: Any Grade [2]: 6 participants | Renal and urinary disorders: Grade 3 [2]: 0 participants | Renal and urinary disorders: Grade 4 [2]: 0 participants | Renal and urinary disorders: Grade 5 [2]: 0 participants | Skin and subcutaneous tissue disorders: Any Grade [2]: 2 participants | Skin and subcutaneous tissue disorders: Grade 3 [2]: 0 participants | Skin and subcutaneous tissue disorders: Grade 4 [2]: 0 participants | Skin and subcutaneous tissue disorders: Grade 5 [2]: 0 participants | Vascular disorders: Any Grade [2]: 2 participants | Vascular disorders: Grade 3 [2]: 1 participants | Vascular disorders: Grade 4 [2]: 0 participants | Vascular disorders: Grade 5 [2]: 0 participants | Vomiting: Any Grade [2]: 2 participants | Vomiting: Grade 3 [2]: 0 participants | Vomiting: Grade 4 [2]: 0 participants | Vomiting: Grade 5 [2]: 0 participants | deaths considered related to Compound A (study start until data cut-off): No deaths were considered related to Compound A | deaths reported (study start until data cut-off): Five
